The numbers were not newly measured in US9861587B2, “Composition and method for treating ketosis in cows” (RP FEED COMPONENTS, LLC, priority 2011, dated 2018), which cites them from elsewhere.

The subject of one data set is bovine ketosis. To be noted: oral administration.
The subject of data set [1] is cases of clinical ketosis. Particulars: six cases; orally 40 g once daily for seven days; 21-day examination period.
The test system of a further data set is ketotic cows. Particulars: two ketotic cows; daily injections or oral administration of 12.5 g.

Consider “DL-α-hydroxy-γ-methylmercaptobutyrate calcium [methionine hydroxy analog (MHA)]”, for which, in the data set with bovine ketosis, the “symptoms of bovine ketosis” value is “aided in alleviating symptoms of bovine ketosis”. The serum ketone levels entry in data set [1] was “fell slowly over a 21-day examination period, but never returned to normal levels”.

Consider `CSCCC(N)C(=O)O` (racemic) [DL-methionine], for which, in the data set with ketotic cows, the treatment of ketosis entry is recorded as “unsuccessful treatment”.
